Measurements published in patent US20120003655A1, “IDENTIFICATION OF NEUROPROTECTIVE AGENTS USING PRO-INFLAMMATORY HUMAN GLIAL CELLS” (The Salk Institute for Biological Studies, priority 2008, published 2012).

How the values were obtained:
ALS = ALS patients; cited from earlier work
[1] = tested on: recruitment of Nurr1 to the TNFα-promoter; assay: ChIP assay, Nurr1 recruitment to TNFα-promoter in BV2 cells; assay type: cell-based, mouse; conditions: 30 μM SB21 for 1 h followed by LPS
Method: (§1) FIGS. 12A-I show Nurr1 acting as an RXR-independent, GSK3β-dependent transrepressor for NF-κB. (FIG. 12A) Nurr1 is recruited to the TNFα-promoter in response to LPS. This recruitment is blocked by the GSK3β-specific inhibitor SB216763 (SB21). BV2 cells were pre-incubated with DMSO or 30 μM SB21 for 1 h followed by LPS stimulation for the indicated times before ChIP assay. […] (FIG. 12B) Nurr1-mediated repression is independent of DNA binding and RXR dimerization. RAW264.7 cells were transfected with wild type Nurr1, P-box mutant Nurr1C280A/E281A (CEAA) and I-box mutant Nurr1K555A/L556A/L227A (KLL). iNOS-promoter activity in RAW264.7 cells measured by luciferase-reporter assay. *, p<0.01 compared to control (Mock). […] Equal loading was determined by re-blotting using anti-Nurr1 antibody. […] Nurr1 expression vector was transfected into RAW264.7 cells together with control siRNA or siRNA against GSK3β and iNOS-promoter activity was determined as described before. *, p<0.01 compared to Nurr1 with control siRNA. (FIG. 12I) S468A mutant of p65 abolishes Nurr1-mediated repression of iNOS-promoter activity. iNOS-promoter activity was determined as described before. […]
(§2) ChIP assay. […] Quantitative PCR (qPCR) was performed with SYBR-GREEN PCR master Mix (ABI) or SYBR-GreenER (Invitrogen) and analyzed on a 7200 real time PCR system (ABI).

[2] = tested on: recruitment of Nurr1 at iNOS-promoter; assay: ChIP assay, Nurr1 recruitment to iNOS-promoter in mouse primary astrocytes; assay type: cell-based; conditions: SB21 pre-incubation, IL1β stimulation
Method: FIGS. 15A-I show the CoREST complex requirement for Nurr1-mediated repression in astrocytes. (FIG. 15A) IL1β stimulation enhances physical association of Nurr1 and p65 in mouse primary astrocytes. Lysates of astrocytes stimulated with IL1β (10 ng/ml) for the indicated times were immunoprecipitated with anti-Nurr1 antibody and Western blots were developed with anti-p65 antibody. Equal loading was determined as described in FIG. 12F. (FIG. 15B) Recruitment of Nurr1 and p65 to iNOS-promoter in mouse primary astrocyte shown by ChIP assay. Data represent fold enrichment of iNOS-promoter precipitated with the indicated antibodies compared to control IgG as determined by qPCR. […] Mouse primary astrocytes were treated with SB21 as described in FIG. 12A. Data represent fold enrichment of iNOS-promoter precipitated with antibody against Nurr1 compared to control IgG as determined by qPCR. […] Data represent fold enrichment of iNOS-promoter precipitated with the indicated antibodies compared to control IgG as determined by qPCR. […] Cells were stimulated with 10 ng/ml IL1β for 6 h and mRNA expression of iNOS (FIG. 15F), CSF1 (FIG. 15G) and Ncf1 (FIG. 15H) was determined by qPCR. […]
as §2

[3] = tested on: interaction of Nurr1 and p65; assay: Co-immunoprecipitation of Nurr1 and p65 in LPS-stimulated BV2 cells; assay type: cell-based, mouse; conditions: SB21 1 h prior to LPS (1 μg/ml), co-IP and Western blot
Method: as §1, with “(Mock). (FIG. 12C) siRNA against Ubc9 abolishes Nurr1-mediated transrepression of iNOS-promoter activity. *, p<0.01 compared to Nurr1 with control siRNA. (FIG. 12D) K558 and K576 are the predominant SUMOylation sites of Nurr1.” for “(Mock).”

[4] = target: T1, Nurr1 (NR4A2), endogenous protein in mouse cells (mouse, UniProt Q06219 1-598); assay: co-IP from BV2 lysates, anti-Nurr1 IP, anti-p65 Western blot (FIG. 12F)
T1 construct: Endogenous protein, immunoprecipitated or blotted with anti-Nurr1 (E-20, Santa Cruz)
Method: Lysates of BV2 cells stimulated with LPS (1 μg/ml) for the indicated times were immunoprecipitated with anti-Nurr1 antibody and Western blots were developed with anti-p65 antibody. Equal loading was determined by re-blotting using anti-Nurr1 antibody. (FIG. 12G) SB21 impairs the binding of Nurr1 and p65 in a dose-dependent manner. BV2 cells were incubated with SB21 at the indicated concentrations for 1 h prior to stimulation with LPS (1 μg/ml). IP and Western blotting were performed as described in FIG. 12F. (FIG. 12H) siRNA against GSK3β abolishes Nurr1-mediated repression of iNOS-promoter activity. Nurr1 expression vector was transfected into RAW264.7 cells together with control siRNA or siRNA against GSK3β and iNOS-promoter activity was determined as described before. *, p<0.01 compared to Nurr1 with control siRNA. (FIG. 12I) S468A mutant of p65 abolishes Nurr1-mediated repression of iNOS-promoter activity. iNOS-promoter activity was determined as described before.
Co-immunoprecipitations and Western blotting. Hela cells or NIH3T3 cells were transfected using Lipofectamine 2000 reagent (Invitrogen) following manufacturer's protocol. Transfected cells were stimulated by 10 ng/ml recombinant human or mouse mIL1β (R & D system) for the indicated times prior to harvesting. […]

T1 sequence (Q06219 whole entry): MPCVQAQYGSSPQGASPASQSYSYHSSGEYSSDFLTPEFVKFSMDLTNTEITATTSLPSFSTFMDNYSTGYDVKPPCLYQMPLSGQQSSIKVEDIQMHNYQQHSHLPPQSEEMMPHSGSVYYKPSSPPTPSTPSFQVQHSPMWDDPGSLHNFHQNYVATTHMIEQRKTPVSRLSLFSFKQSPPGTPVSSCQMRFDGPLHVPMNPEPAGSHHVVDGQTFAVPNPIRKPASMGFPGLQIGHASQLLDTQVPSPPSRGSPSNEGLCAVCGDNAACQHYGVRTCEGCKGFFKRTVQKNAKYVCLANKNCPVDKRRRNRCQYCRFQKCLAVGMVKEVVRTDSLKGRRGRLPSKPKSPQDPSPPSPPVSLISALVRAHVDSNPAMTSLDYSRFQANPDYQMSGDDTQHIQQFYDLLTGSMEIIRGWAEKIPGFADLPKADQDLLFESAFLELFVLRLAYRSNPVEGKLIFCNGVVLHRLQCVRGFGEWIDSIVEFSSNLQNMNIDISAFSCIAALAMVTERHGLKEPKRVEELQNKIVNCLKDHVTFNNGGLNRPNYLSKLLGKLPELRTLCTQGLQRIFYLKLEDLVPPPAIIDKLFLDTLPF

## Nc1nc2ccc(OC(F)(F)F)cc2s1 [riluzole]
ALS
  extension of the course of the disease: 2 months

## Cn1cc(C2=C(c3ccc(Cl)cc3Cl)C(=O)NC2=O)c2ccccc21 [SB216763]
[1]
  recruitment of Nurr1 to the TNFα-promoter: blocked
[1]; listed as SB21
  recruitment of Nurr1 to the TNFα-promoter: prevented the recruitment of Nurr1 to the TNFα-promoter
[2]
  recruitment of Nurr1 at iNOS-promoter: Altered recruitment of Nurr1 to iNOS-promoter
[2]; listed as SB21
  recruitment of Nurr1 at iNOS-promoter: decreases the recruitment of Nurr1 at iNOS-promoter
[3]
  interaction (binding) of Nurr1 and p65: inhibited the interaction of Nurr1 and p65 in BV2 cells in a dose-dependent manner
[3]; listed as SB21
  interaction (binding) of Nurr1 and p65: impairs the binding of Nurr1 and p65 in a dose-dependent manner

B1: NF-κB-p65, endogenous protein in mouse cells (other, UniProt Q04207 1-549, looked up)
chain: MDDLFPLIFPSEPAQASGPYVEIIEQPKQRGMRFRYKCEGRSAGSIPGERSTDTTKTHPTIKINGYTGPGTVRISLVTKDPPHRPHPHELVGKDCRDGYYEADLCPDRSIHSFQNLGIQCVKKRDLEQAISQRIQTNNNPFHVPIEEQRGDYDLNAVRLCFQVTVRDPAGRPLLLTPVLSHPIFDNRAPNTAELKICRVNRNSGSCLGGDEIFLLCDKVQKEDIEVYFTGPGWEARGSFSQADVHRQVAIVFRTPPYADPSLQAPVRVSMQLRRPSDRELSEPMEFQYLPDTDDRHRIEEKRKRTYETFKSIMKKSPFNGPTEPRPPTRRIAVPTRNSTSVPKPAPQPYTFPASLSTINFDEFSPMLLPSGQISNQALALAPSSAPVLAQTMVPSSAMVPLAQPPAPAPVLTPGPPQSLSAPVPKSTQAGEGTLSEALLHLQFDADEDLGALLGNSTDPGVFTDLASVDNSEFQQLLNQGVSMSHSTAEPMLMEYPEAITRLVTGSQRPPDPAPTPLGTSGLPNGLSGDEDFSSIADMDFSALLSQISS
notes: Endogenous protein, detected with anti-p65 (C-20, Santa Cruz)
[4]
  binding result: binds
